Literature values as cited in patent US20170037184A1, “VITAMIN E-BASED NANOCARRIERS FOR DRUG DELIVERY AND METHODS OF MAKING AND USING THE SAME” (THE CORPORATION OF MERCER UNIVERSITY, priority 2014, published 2017).

Conditions: ethylenediamine group of DET conjugated to polyasparagine

NCCNCCN [DET, diethylenetriamine]
pKa1: 9.5 | pKa2: 6.0
